Measurements from PubChem BioAssay AID248 (DTP/NCI, 2004).
“And” between values parts separate entries of the source, which are not always exact repeats. Equal entries are not always repeated. Inconclusive results and toxic doses are left out. Rule as the data show it: active = T/C of 150% or more; inactive = T/C below 125%.

Test system: L1210 leukemia ip in BDF1 mice, survival T/C
Test: NCI In Vivo Anticancer Drug Screen. Data for tumor model L1210 Leukemia (intraperitoneal) in B6D2F1 (BDF1) mice
Conditions: endpoint: mean survival time, higher = longer survival
Outline: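 Tumor was transplanted into mice, which were then dosed with test compound or vehicle alone. Survival was recorded for each group, and the treated figure was expressed relative to the control figure.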

[1] = dose: 100.0 mg/kg/injection, schedule: Q04DX003 (ip), vehicle: saline with Tween-80
[2] = dose: 400.0 mg/kg/injection, schedule: Q04DX003 (ip), vehicle: saline with Tween-80
[3] = dose: 100.0 mg/kg/injection, schedule: Q01DX009 (ip), vehicle: saline with Tween-80
[4] = dose: 200.0 mg/kg/injection, schedule: Q01DX009 (ip), vehicle: saline with Tween-80
[5] = dose: 400.0 mg/kg/injection, schedule: Q01DX009 (ip), vehicle: saline with Tween-80
[6] = dose: 200.0 mg/kg/injection, schedule: Q04DX003 (ip), vehicle: saline with Tween-80
[7] = dose: 100.0 mg/kg/injection, schedule: Q01DX009 (ip), vehicle: Klucel (hydroxypropylcellulose) (HPC)
[8] = dose: 100.0 mg/kg/injection, schedule: Q04DX003 (ip), vehicle: Klucel (hydroxypropylcellulose) (HPC)
[9] = dose: 200.0 mg/kg/injection, schedule: Q01DX009 (ip), vehicle: Klucel (hydroxypropylcellulose) (HPC)
[10] = dose: 200.0 mg/kg/injection, schedule: Q04DX003 (ip), vehicle: Klucel (hydroxypropylcellulose) (HPC)
[11] = dose: 400.0 mg/kg/injection, schedule: Q01DX009 (ip), vehicle: Klucel (hydroxypropylcellulose) (HPC)
[12] = dose: 400.0 mg/kg/injection, schedule: Q04DX003 (ip), vehicle: Klucel (hydroxypropylcellulose) (HPC)
[13] = dose: 400.0 mg/kg/injection, schedule: Q04DX002 (ip), vehicle: saline with Tween-80
[14] = dose: 50.0 mg/kg/injection, schedule: Q01DX001 (ip), vehicle: carboxymethylcellulose (CMC)
[15] = dose: 100.0 mg/kg/injection, schedule: Q01DX001 (ip), vehicle: carboxymethylcellulose (CMC)
[16] = dose: 200.0 mg/kg/injection, schedule: Q01DX001 (ip), vehicle: carboxymethylcellulose (CMC)
[17] = dose: 400.0 mg/kg/injection, schedule: Q01DX001 (ip), vehicle: carboxymethylcellulose (CMC)
[18] = dose: 100.0 mg/kg/injection, schedule: Q01DX009 (ip), vehicle: saline
[19] = dose: 50.0 mg/kg/injection, schedule: Q01DX009 (ip), vehicle: Klucel (hydroxypropylcellulose) (HPC)
[20] = dose: 100.0 mg/kg/injection, schedule: Q04DX002 (ip), vehicle: saline
[21] = dose: 200.0 mg/kg/injection, schedule: Q04DX002 (ip), vehicle: saline
[22] = dose: 400.0 mg/kg/injection, schedule: Q04DX002 (ip), vehicle: saline

Measured: T/C

O=C(Nc1ccc(Cl)cc1)OCC#CCOC(=O)Nc1ccc(Cl)cc1
inactive: dose: 75.0 mg/kg/injection, schedule: Q04DX003 (ip), vehicle: Klucel (hydroxypropylcellulose) (HPC) 93 % of control | dose: 100.0 mg/kg/injection, schedule: Q01DX001 (ip), vehicle: saline with Tween-80 90 % of control | [1] 88 % of control | dose: 150.0 mg/kg/injection, schedule: Q04DX003 (ip), vehicle: Klucel (hydroxypropylcellulose) (HPC) 93 % of control | dose: 200.0 mg/kg/injection, schedule: Q01DX001 (ip), vehicle: saline with Tween-80 88 % of control | dose: 300.0 mg/kg/injection, schedule: Q04DX003 (ip), vehicle: Klucel (hydroxypropylcellulose) (HPC) 98 % of control | dose: 400.0 mg/kg/injection, schedule: Q01DX001 (ip), vehicle: saline with Tween-80 90 % of control | [2] 90 % of control

O=C(NCc1cnccn1)c1ccc([N+](=O)[O-])cc1
inactive: [3] 98 % of control | [4] 104 % of control | [5] 98 % of control

COc1ccc(OC(=O)Nc2c(C)cccc2C)cc1
inactive: [3] 95 % of control | [1] 98 % of control | [4] 91 % of control | [6] 105 % of control | [5] 94 % of control | [2] 100 % of control

O=C(N/N=C/c1c(Cl)cccc1Cl)C1CCCO1 (stereo unspecified)
inactive: dose: 6.25 mg/kg/injection, schedule: Q01DX009 (ip), vehicle: Klucel (hydroxypropylcellulose) (HPC) 96 % of control | dose: 12.5 mg/kg/injection, schedule: Q01DX009 (ip), vehicle: Klucel (hydroxypropylcellulose) (HPC) 96 % of control | dose: 25.0 mg/kg/injection, schedule: Q01DX009 (ip), vehicle: Klucel (hydroxypropylcellulose) (HPC) 95 % of control and 91 % of control

COC(=O)C1CC(C2c3ccccc3-c3ccccc32)CCC1N (stereo unspecified)
inactive: [6] 100 % of control

CC1(C)C2CC3C(=CCCC3(Cl)C#N)C1C2 (stereo unspecified)
inactive: [7] 98 % of control | [8] 106 % of control | [9] 102 % of control | [10] 101 % of control | [11] 93 % of control | [12] 97 % of control

CN(C)/N=N/c1ccn[nH]1
inactive: dose: 50.0 mg/kg/injection, schedule: Q01DX005 (ip), vehicle: saline 105 % of control

CC1(CO)COCOC1
inactive: dose: 50.0 mg/kg/injection, schedule: Q01DX009 (ip), vehicle: acetone 104 % of control | dose: 100.0 mg/kg/injection, schedule: Q01DX009 (ip), vehicle: acetone 108 % of control | dose: 100.0 mg/kg/injection, schedule: Q04DX003 (ip), vehicle: acetone 95 % of control | dose: 200.0 mg/kg/injection, schedule: Q01DX009 (ip), vehicle: acetone 104 % of control | dose: 200.0 mg/kg/injection, schedule: Q04DX003 (ip), vehicle: acetone 105 % of control | dose: 400.0 mg/kg/injection, schedule: Q04DX003 (ip), vehicle: acetone 97 % of control

C=C(C)C1CC=C(C=O)CC1 (stereo unspecified)
inactive: dose: 100.0 mg/kg/injection, schedule: Q01DX001 (ip), vehicle: Klucel (hydroxypropylcellulose) (HPC) 93 % of control | [7] 94 % of control | [8] 101 % of control | dose: 200.0 mg/kg/injection, schedule: Q01DX001 (ip), vehicle: Klucel (hydroxypropylcellulose) (HPC) 92 % of control | [9] 109 % of control | [10] 98 % of control | dose: 400.0 mg/kg/injection, schedule: Q01DX001 (ip), vehicle: Klucel (hydroxypropylcellulose) (HPC) 92 % of control | [12] 101 % of control

COc1ccc(S(=O)Nc2ccccc2)cc1 (stereo unspecified)
inactive: dose: 25.6 mg/kg/injection, schedule: Q04DX002 (ip), vehicle: saline with Tween-80 108 % of control | dose: 64.0 mg/kg/injection, schedule: Q04DX002 (ip), vehicle: saline with Tween-80 115 % of control | dose: 160.0 mg/kg/injection, schedule: Q04DX002 (ip), vehicle: saline with Tween-80 101 % of control | [13] 112 % of control | [2] 95 % of control

CC(=O)NCC(=O)c1ccc(S(=O)(=O)c2ccccc2)cc1
inactive: [14] 104 % of control | [15] 98 % of control | [16] 96 % of control | [17] 98 % of control

NC(CCCCNC(c1ccccc1)(c1ccccc1)c1ccccc1)C(=O)O (stereo unspecified)
inactive: dose: 12.5 mg/kg/injection, schedule: Q01DX009 (ip), vehicle: saline 102 % of control | dose: 25.0 mg/kg/injection, schedule: Q01DX009 (ip), vehicle: saline 101 % of control | dose: 50.0 mg/kg/injection, schedule: Q01DX009 (ip), vehicle: saline 101 % of control | [18] 97 % of control

CC(=O)OC1=NC(C)c2c1cc(OC(C)=O)[nH]c2=O (stereo unspecified)
inactive: [19] 102 % of control | [8] 108 % of control | [10] 115 % of control

CCC(CC)=NNC(N)=O
inactive: dose: 25.0 mg/kg/injection, schedule: Q04DX003 (ip), vehicle: Klucel (hydroxypropylcellulose) (HPC) 104 % of control | dose: 50.0 mg/kg/injection, schedule: Q04DX003 (ip), vehicle: Klucel (hydroxypropylcellulose) (HPC) 100 % of control | [8] 103 % of control and 104 % of control

CC1(C)OCC(C2OC(N)C3OC(C)(C)OC32)O1 (stereo unspecified)
inactive: [20] 97 % of control | [21] 113 % of control | [22] 103 % of control

CC(C)(Cl)Cc1ccccc1
inactive: [3] 88 % of control | [1] 103 % of control | [4] 91 % of control | [6] 105 % of control | [2] 94 % of control

CC(CC(O)c1ccccc1)c1ccccc1 (stereo unspecified)
inactive: [18] 102 % of control | [8] 98 % of control | dose: 200.0 mg/kg/injection, schedule: Q01DX009 (ip), vehicle: saline 97 % of control | [10] 104 % of control | dose: 400.0 mg/kg/injection, schedule: Q01DX009 (ip), vehicle: saline 98 % of control | [12] 104 % of control

Cc1ccc([N+](=O)[O-])cc1NC(=O)N(C1CCCCC1)C1CCCCC1
inactive: [7] 95 % of control | [9] 97 % of control | [11] 97 % of control

CCOC(=O)c1ccc(N=C2C(C)(C)C(=Nc3ccc(C(=O)OCC)cc3)C2(C)C)cc1
inactive: dose: 100.0 mg/kg/injection, schedule: Q04DX002 (ip), vehicle: saline with Tween-80 93 % of control | dose: 200.0 mg/kg/injection, schedule: Q04DX002 (ip), vehicle: saline with Tween-80 87 % of control | [13] 87 % of control

C1=C2NNC(c3ccccc3)=C(c3ccccc3)C2=CCC1 (tested in a mixture with another compound)
inactive: [19] 94 % of control | [7] 90 % of control | [9] 90 % of control

O=C1CCCO1
inactive: dose: 100.0 mg/kg/injection, schedule: Q04DX003 (ip), vehicle: saline 92 % of control | dose: 200.0 mg/kg/injection, schedule: Q04DX003 (ip), vehicle: saline 100 % of control | dose: 400.0 mg/kg/injection, schedule: Q04DX003 (ip), vehicle: saline 94 % of control

CCC(=O)NC1=CC(=O)c2ccccc2C1=O
inactive: dose: 75.0 mg/kg/injection, schedule: Q01DX001 (ip), vehicle: carboxymethylcellulose (CMC) 98 % of control | dose: 150.0 mg/kg/injection, schedule: Q01DX001 (ip), vehicle: carboxymethylcellulose (CMC) 97 % of control | dose: 300.0 mg/kg/injection, schedule: Q01DX001 (ip), vehicle: carboxymethylcellulose (CMC) 95 % of control

CCOC(=O)N(OC(C)=O)P(=O)(N1CC1)N1CC1
inactive: [20] 100 % of control | [21] 100 % of control | [22] 104 % of control

COc1c(OC)c(OC)c2c(c1OC)c(=O)c1ccccc1n2C
inactive: [14] 93 % of control | [15] 102 % of control | [16] 96 % of control | [17] 98 % of control

Nc1ccccc1NC(=O)C(F)(F)F
inactive: [14] 93 % of control | [15] 97 % of control | [16] 98 % of control | [17] 108 % of control
